Data reported in US8192962B2, “Processes for detecting toxic substances” (Daikin Industries, Ltd., priority 2001, dated 2012).

System: Energy system protein genes
Test: DNA chip mRNA expression in yeast, energy system protein genes (Table 4)
Type: cell-based, Saccharomyces cerevisiae S288C
How it was run: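 Values are treated/untreated fluorescence ratios from a whole-genome yeast DNA chip hybridized over 12 hours at 65° C with Cy3- or Cy5-labelled cDNA from poly(A) mRNA. Log-phase S288C yeast in YPD at 25° C had received a single toxic chemical for two hours, dosed to slow growth without killing.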

## N#Cc1c(Cl)c(Cl)c(Cl)c(C#N)c1Cl [(9), 2,4,5,6-tetrachloro-1,3-benzenedicarbonitrile]
Yeast gene YAL054C
  The level of expressed mRNA in the presence of chemical substance/The level of expressed mRNA in the absence of chemical substance: 8.9
Yeast gene YAL060W
  The level of expressed mRNA in the presence of chemical substance/The level of expressed mRNA in the absence of chemical substance: 0.6
Yeast gene YBL058W, cells incubated two hours with the chemical substance
  The level of expressed mRNA in the presence of chemical substance/The level of expressed mRNA in the absence of chemical substance: 2.6
Yeast gene YBL099W, cells incubated two hours with the chemical substance
  The level of expressed mRNA in the presence of chemical substance/The level of expressed mRNA in the absence of chemical substance: 0.9
Yeast gene YBR001C, cells incubated two hours with the chemical substance
  The level of expressed mRNA in the presence of chemical substance/The level of expressed mRNA in the absence of chemical substance: 2.3
Yeast gene YBR185C, cells incubated two hours with the chemical substance
  The level of expressed mRNA in the presence of chemical substance/The level of expressed mRNA in the absence of chemical substance: 0.9
Yeast gene YBR221C, cells incubated two hours with the chemical substance
  The level of expressed mRNA in the presence of chemical substance/The level of expressed mRNA in the absence of chemical substance: 1.0
Yeast gene YBR299W
  The level of expressed mRNA in the presence of chemical substance/The level of expressed mRNA in the absence of chemical substance: 1.1
Yeast gene YCL040W
  The level of expressed mRNA in the presence of chemical substance/The level of expressed mRNA in the absence of chemical substance: 0.9
Yeast gene YCR012W
  The level of expressed mRNA in the presence of chemical substance/The level of expressed mRNA in the absence of chemical substance: 1.4
Yeast gene YCR046C, cells incubated two hours with the chemical substance
  The level of expressed mRNA in the presence of chemical substance/The level of expressed mRNA in the absence of chemical substance: 1.9
Yeast gene YCR105W, cells incubated two hours with the chemical substance
  The level of expressed mRNA in the presence of chemical substance/The level of expressed mRNA in the absence of chemical substance: 2.0
Yeast gene YDL021W
  The level of expressed mRNA in the presence of chemical substance/The level of expressed mRNA in the absence of chemical substance: 2.5
Yeast gene YDL067C, cells incubated two hours with the chemical substance
  The level of expressed mRNA in the presence of chemical substance/The level of expressed mRNA in the absence of chemical substance: 0.9
Yeast gene YDL078C, cells incubated two hours with the chemical substance
  The level of expressed mRNA in the presence of chemical substance/The level of expressed mRNA in the absence of chemical substance: 1.1
Yeast gene YDL107W, cells incubated two hours with the chemical substance
  The level of expressed mRNA in the presence of chemical substance/The level of expressed mRNA in the absence of chemical substance: 1.2
Yeast gene YDL174C
  The level of expressed mRNA in the presence of chemical substance/The level of expressed mRNA in the absence of chemical substance: 0.5
Yeast gene YDL181W, cells incubated two hours with the chemical substance
  The level of expressed mRNA in the presence of chemical substance/The level of expressed mRNA in the absence of chemical substance: 0.7
Yeast gene YDR001C
  The level of expressed mRNA in the presence of chemical substance/The level of expressed mRNA in the absence of chemical substance: 2.2
Yeast gene YDR050C, cells incubated two hours with the chemical substance
  The level of expressed mRNA in the presence of chemical substance/The level of expressed mRNA in the absence of chemical substance: 0.4
Yeast gene YDR079W, cells incubated two hours with the chemical substance
  The level of expressed mRNA in the presence of chemical substance/The level of expressed mRNA in the absence of chemical substance: 0.9
Yeast gene YDR178W, cells incubated two hours with the chemical substance
  The level of expressed mRNA in the presence of chemical substance/The level of expressed mRNA in the absence of chemical substance: 0.9
Yeast gene YDR231C
  The level of expressed mRNA in the presence of chemical substance/The level of expressed mRNA in the absence of chemical substance: 1.5
Yeast gene YDR298C, cells incubated two hours with the chemical substance
  The level of expressed mRNA in the presence of chemical substance/The level of expressed mRNA in the absence of chemical substance: 1.0
Yeast gene YDR377W, cells incubated two hours with the chemical substance
  The level of expressed mRNA in the presence of chemical substance/The level of expressed mRNA in the absence of chemical substance: 1.0
Yeast gene YDR529C, cells incubated two hours with the chemical substance
  The level of expressed mRNA in the presence of chemical substance/The level of expressed mRNA in the absence of chemical substance: 0.5
Yeast gene YEL024W, cells incubated two hours with the chemical substance
  The level of expressed mRNA in the presence of chemical substance/The level of expressed mRNA in the absence of chemical substance: 0.7
Yeast gene YEL039C, cells incubated two hours with the chemical substance
  The level of expressed mRNA in the presence of chemical substance/The level of expressed mRNA in the absence of chemical substance: 1.2
Yeast gene YER178W
  The level of expressed mRNA in the presence of chemical substance/The level of expressed mRNA in the absence of chemical substance: 1.7
Yeast gene YFL057C
  The level of expressed mRNA in the presence of chemical substance/The level of expressed mRNA in the absence of chemical substance: 51.8
Yeast gene YFR053C
  The level of expressed mRNA in the presence of chemical substance/The level of expressed mRNA in the absence of chemical substance: 0.6
Yeast gene YGL018C, cells incubated two hours with the chemical substance
  The level of expressed mRNA in the presence of chemical substance/The level of expressed mRNA in the absence of chemical substance: 0.5
Yeast gene YGL062W
  The level of expressed mRNA in the presence of chemical substance/The level of expressed mRNA in the absence of chemical substance: 1.6
Yeast gene YGL187C, cells incubated two hours with the chemical substance
  The level of expressed mRNA in the presence of chemical substance/The level of expressed mRNA in the absence of chemical substance: 0.6
Yeast gene YGL191W, cells incubated two hours with the chemical substance
  The level of expressed mRNA in the presence of chemical substance/The level of expressed mRNA in the absence of chemical substance: 1.1
Yeast gene YGL205W, cells incubated two hours with the chemical substance
  The level of expressed mRNA in the presence of chemical substance/The level of expressed mRNA in the absence of chemical substance: 0.5
Yeast gene YGL256W, cells incubated two hours with the chemical substance
  The level of expressed mRNA in the presence of chemical substance/The level of expressed mRNA in the absence of chemical substance: 0.4
Yeast gene YGR008C
  The level of expressed mRNA in the presence of chemical substance/The level of expressed mRNA in the absence of chemical substance: 3.1
Yeast gene YGR043C
  The level of expressed mRNA in the presence of chemical substance/The level of expressed mRNA in the absence of chemical substance: 10.9
Yeast gene YGR062C, cells incubated two hours with the chemical substance, 25° C., YPD medium
  The level of expressed mRNA in the presence of chemical substance/The level of expressed mRNA in the absence of chemical substance: 1.0
Yeast gene YGR087C, cells incubated two hours with the chemical substance
  The level of expressed mRNA in the presence of chemical substance/The level of expressed mRNA in the absence of chemical substance: 0.2
Yeast gene YGR174C, cells incubated two hours with the chemical substance
  The level of expressed mRNA in the presence of chemical substance/The level of expressed mRNA in the absence of chemical substance: 1.8
Yeast gene YGR192C
  The level of expressed mRNA in the presence of chemical substance/The level of expressed mRNA in the absence of chemical substance: 0.9
Yeast gene YGR244C
  The level of expressed mRNA in the presence of chemical substance/The level of expressed mRNA in the absence of chemical substance: 1.4
Yeast gene YGR254W
  The level of expressed mRNA in the presence of chemical substance/The level of expressed mRNA in the absence of chemical substance: 0.8
Yeast gene YGR256W
  The level of expressed mRNA in the presence of chemical substance/The level of expressed mRNA in the absence of chemical substance: 3.4
Yeast gene YHL008C
  The level of expressed mRNA in the presence of chemical substance/The level of expressed mRNA in the absence of chemical substance: 1.6
Yeast gene YHR174W
  The level of expressed mRNA in the presence of chemical substance/The level of expressed mRNA in the absence of chemical substance: 1.0
Yeast gene YHR179W
  The level of expressed mRNA in the presence of chemical substance/The level of expressed mRNA in the absence of chemical substance: 3.6
Yeast gene YIL160C
  The level of expressed mRNA in the presence of chemical substance/The level of expressed mRNA in the absence of chemical substance: 3.2
Yeast gene YIR031C, cells incubated two hours with the chemical substance
  The level of expressed mRNA in the presence of chemical substance/The level of expressed mRNA in the absence of chemical substance: 2.6
Yeast gene YJL052W
  The level of expressed mRNA in the presence of chemical substance/The level of expressed mRNA in the absence of chemical substance: 1.6
